Test results taken from patent US8278304B2, “Substituted 4-hydroxypyrimidine-5-carboxamides” (Merck Sharp & Dohme Corp., priority 2008, dated 2012).
Counter-ions that a name gives are not always drawn.

The compounds below were run against T1, PHD2 (Homo sapiens, UniProt Q9GZT9) (assay: PHD2 / HIF-1α peptide hydroxylation assay, time resolved fluorescence (VHL complex detection)). Conditions: FLAG-tagged full length PHD2; 0.2 μM 2-oxoglutarate, 0.5 μM HIF-1α peptide; read-out: PHD2 Activity (PHD2 binding activity expressed as IC50 (nM)).
T1 construct: FLAG-tagged full length PHD2 expressed in and purified from baculovirus-infected Sf9 cells; FLAG; made in house; host or cells: baculovirus-infected Sf9 cells
T1 sequence (Q9GZT9 whole entry): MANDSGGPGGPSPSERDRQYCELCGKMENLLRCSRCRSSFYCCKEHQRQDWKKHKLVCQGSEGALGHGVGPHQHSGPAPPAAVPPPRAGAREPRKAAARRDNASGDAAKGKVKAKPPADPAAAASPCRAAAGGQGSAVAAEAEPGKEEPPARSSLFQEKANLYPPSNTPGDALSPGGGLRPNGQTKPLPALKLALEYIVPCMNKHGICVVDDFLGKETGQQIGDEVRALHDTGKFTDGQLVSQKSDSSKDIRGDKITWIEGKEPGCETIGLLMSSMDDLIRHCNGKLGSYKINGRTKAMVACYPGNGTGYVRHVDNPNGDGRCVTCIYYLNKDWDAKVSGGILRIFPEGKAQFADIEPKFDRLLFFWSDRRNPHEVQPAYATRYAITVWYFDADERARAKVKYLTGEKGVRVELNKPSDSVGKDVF
Assay type: biochemical
Procedure, shortened: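 Sf9-expressed FLAG-tagged full-length PHD2 (0.15 μg/ml) preincubated with compound 30 min at room temperature in Tris pH 7.4 buffer with 10 μM ferrous sulfate, 1 mM ascorbate and catalase. Reaction started with 0.2 μM 2-oxoglutarate and 0.5 μM biotinylated HIF-1α peptide (final); hydroxylation detected by time-resolved fluorescence via VHL complex binding.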

| SMILES | IC50 [nM] |
| --- | --- |
| O=C(NCc1ccc(F)cc1)c1cnc(-c2ncccn2)nc1O [Example 21, N-(4-fluorobenzyl)-4-hydroxy-2,2′-bipyrimidine-5-carboxamide] | 1000 to 10000 |
| COc1ccc(C(NC(=O)c2cnc(-c3cccnn3)nc2O)c2cccc(C)n2)c(OC)c1 (single isomer, unassigned) [Example 149, N-[(2,4-dimethoxyphenyl)(6-methylpyridin-2-yl)methyl]-4-hydroxy-2-(pyridazin-3-yl)pyrimidine-5-carboxamide] | ≤ 10 |
| CC(C)(NC(=O)c1cnc(-c2cc(Br)ccn2)nc1O)c1ccccc1 [Example 1, 2-(4-Bromopyridin-2-yl)-4-hydroxy-N-(1-methyl-1-phenylethyl)pyrimidine-5-carboxamide] | 10 to 100 |
| Cc1ccc([C@H](C)NC(=O)c2cnc(-n3cccn3)nc2O)cc1 [Example 79, 4-Hydroxy-N-[(1S)-1-(4-methylphenyl)ethyl]-2-(1H-pyrazol-1-yl)pyrimidine-5-carboxamide] | ≤ 10 |
| COc1ccc(C(NC(=O)c2cnc(-c3cccnn3)nc2O)c2cccc(C#N)c2)cc1 (single isomer, unassigned) [Example 147, N-[(3-cyanophenyl)(4-methoxyphenyl)methyl]-4-hydroxy-2-(pyridazin-3-yl)pyrimidine-5-carboxamide] | ≤ 10 |
| O=C(NC1(c2ccccc2)CC1)c1cnc(-n2cccn2)nc1O [Example 87, 4-Hydroxy-N-(1-phenylcyclopropyl)-2-(1H-pyrazol-1-yl)pyrimidine-5-carboxamide] | ≤ 10 |
| COc1ccc(C(NC(=O)c2cnc(-c3cccnn3)nc2O)c2ccc(OC(F)(F)F)cc2)cc1 (single isomer, unassigned) [Example 152, 4-hydroxy-N-{(4-methoxyphenyl)[4-(trifluoromethoxy)phenyl]methyl}-2-(pyradazin-3-yl)pyrimidine-5-carboxamide] | ≤ 10 |
| COc1ccc(C(NC(=O)c2cnc(-c3cccnn3)nc2O)c2ccc(C#N)cc2)c(OC)c1 (single isomer, unassigned) [Example 155, N-[(4-cyanophenyl)(2,4-dimethoxyphenyl)methyl]-4-hydroxy-2-(pyridazin-3-yl)pyrimidine-5-carboxamide] | ≤ 10 |
| Cc1cc(C)n(-c2ncc(C(=O)NCc3ccc(OC(F)(F)F)cc3)c(O)n2)n1 [Example 44, 2-(3,5-Dimethyl-1H-pyrazol-1-yl)-4-hydroxy-N-[4-(trifluoromethoxy)benzyl]pyrimidine-5-carboxamide] | 100 to 1000 |
| COCc1ccc(C(NC(=O)c2cnc(-c3cccnn3)nc2O)c2ccc(OC)cc2)cc1 (racemic) [Example 181] | ≤ 10 |
| COc1cccc([C@H](C)NC(=O)c2cnc(-n3cccn3)nc2O)c1 [Example 126, 4-hydroxy-N-[(1S)-1-(3-methoxyphenyl)ethyl]-2-(1H-pyrazol-1-yl)pyrimidine-5-carboxamide] | ≤ 10 |
| O=C(NCc1ccc(Oc2ccccc2)cc1)c1cnc(-n2cccn2)nc1O [Example 93, 4-hydroxy-N-(4-phenoxybenzyl)-2-(1H-pyrazol-1-yl)pyrimidine-5-carboxamide] | ≤ 10 |
| COc1ccc(C(NC(=O)c2cnc(-c3cccnn3)nc2O)c2ccc(OC)nc2)cc1 (single isomer, unassigned) [Example 190] | ≤ 10 |
| Cc1nc(-c2ncc(C(=O)Nc3ccc(C(F)(F)F)cc3)c(O)n2)cs1 [Example 34, 4-Hydroxy-2-(2-methyl-1,3-thiazol-4-yl)-N-[4-(trifluoromethyl)phenyl]pyrimidine-5-carboxamide] | 1000 to 10000 |
| COc1ccc(C(NC(=O)c2cnc(-c3cccnn3)nc2O)c2cccc(C)n2)c(OC)c1 (stereo not shown) [Example 115, N-[(2,4-Dimethoxyphenyl)(6-methylpyridin-2-yl)methyl]-4-hydroxy-2-pyridazin-3-ylpyrimidine-5-carboxamide] | ≤ 10 |
| COc1ccc(C(NC(=O)c2cnc(-c3cccnn3)nc2O)c2ccc3cc(OC)ccc3n2)cc1 (stereo not shown) [Example 172, 4-hydroxy-N-[(4-methoxyphenyl)(6-methoxyquinolin-2-yl)methyl]-2-(pyridazin-3-yl)pyrimidine-5-carboxamide] | ≤ 10 |
| Cc1cccc(-c2ncc(C(=O)Nc3ccc(F)cc3Cl)c(O)n2)n1 [Example 16, N-(2-chloro-4-fluorophenyl)-4-hydroxy-2-(6-methylpyridin-2-yl)pyrimidine-5-carboxamide] | 1000 to 10000 |

Now from value to compound:

| IC50 [nM] | SMILES |
| --- | --- |
| ≤ 10 | COc1ccc(C(NC(=O)c2cnc(-c3cccnn3)nc2O)c2ccc(F)cc2)c(OC)c1 (stereo not shown) [Example 176, N-[(2,4-dimethoxyphenyl)(4-fluorophenyl)methyl]-4-hydroxy-2-(pyridazin-3-yl)pyrimidine-5-carboxamide] |
| ≤ 10 | CC(C)(NC(=O)c1cnc(-n2cccn2)nc1O)c1ccc(F)c(F)c1 [Example 89, N-[1-(3,4-difluorophenyl)-1-methylethyl]-4-hydroxy-2-(1H-pyrazol-1-yl)pyrimidine-5-carboxamide] |
| 10 to 100 | O=C(NCc1cnc(-c2ccc(F)cc2)cn1)c1cnc(-n2cccn2)nc1O [Example 109, N-{[5-(4-fluorophenyl)pyrazin-2-yl]methyl}-4-hydroxy-2-(1H-pyrazol-1-yl)pyrimidine-5-carboxamide] |
| ≤ 10 | O=C(N[C@@H](C(=O)O)c1ccccc1)c1cnc(-n2cccn2)nc1O [Example 124, (2R)-({[4-hydroxy-2-(1H-pyrazol-1-yl)pyrimidin-5-yl]carbonyl}amino)(phenyl)ethanoic acid] |
| ≤ 10 | COc1ccc(C(NC(=O)c2cnc(-c3cccnn3)nc2O)c2ccc(O)cc2)cc1 (single isomer, unassigned) [Example 156, 4-hydroxy-N-[(4-hydroxyphenyl)(4-methoxyphenyl)methyl]-2-(pyridazin-3-yl)pyrimidine-5-carboxamide] |
| 10 to 100 | O=C(NC1CCCCC1)c1cnc(-c2cccnn2)nc1O [Example 135, N-cyclohexyl-4-hydroxy-2-(pyridazin-3-yl)pyrimidine-5-carboxamide] |
| 10 to 100 | Cc1ccc([C@@H](C)NC(=O)c2cnc(-n3cccn3)nc2O)cc1 [Example 78, 4-Hydroxy-N-[(1R)-1-(4-methylphenyl)ethyl]-2-(1H-pyrazol-1-yl)pyrimidine-5-carboxamide] |
| 100 to 1000 | N#Cc1ccc(C(NC(=O)c2cnc(-c3cccnn3)nc2O)C2CCCCC2)cc1 (single isomer, unassigned) [Example 162, N-[(4-cyanophenyl)(cyclohexyl)methyl]-4-hydroxy-2-(pyridazin-3-yl)pyrimidine-5-carboxamide] |
| 10 to 100 | O=C(NN1CCCCC1)c1cnc(-n2cccn2)nc1O [Example 80, 4-hydroxy-N-piperidin-1-yl-2-(1H-pyrazol-1-yl)pyrimidine-5-carboxamide trifluoroacetate (salt)] |
| ≤ 10 | COc1ccc(C(NC(=O)c2cnc(-c3cccnn3)nc2O)c2ccc(OC)nc2)cc1 (stereo not shown) [Example 170, 4-hydroxy-N-[(4-methoxyphenyl)(6-methoxypyridin-3-yl)methyl]-2-(pyridazin-3-yl)pyrimidine-5-carboxamide] |
| ≤ 10 | CC(C)(NC(=O)c1cnc(-n2cccn2)nc1O)c1ccc(F)cc1 [Example 73, N-[1-(4-fluorophenyl)-1-methylethyl]-4-hydroxy-2-(1H-pyrazol-1-yl)pyrimidine-5-carboxamide] |
